SMILES strings stand for the structures. Where a name gives a salt, the structure may show the parent alone.

Sequence of BTK (Q06187 whole entry): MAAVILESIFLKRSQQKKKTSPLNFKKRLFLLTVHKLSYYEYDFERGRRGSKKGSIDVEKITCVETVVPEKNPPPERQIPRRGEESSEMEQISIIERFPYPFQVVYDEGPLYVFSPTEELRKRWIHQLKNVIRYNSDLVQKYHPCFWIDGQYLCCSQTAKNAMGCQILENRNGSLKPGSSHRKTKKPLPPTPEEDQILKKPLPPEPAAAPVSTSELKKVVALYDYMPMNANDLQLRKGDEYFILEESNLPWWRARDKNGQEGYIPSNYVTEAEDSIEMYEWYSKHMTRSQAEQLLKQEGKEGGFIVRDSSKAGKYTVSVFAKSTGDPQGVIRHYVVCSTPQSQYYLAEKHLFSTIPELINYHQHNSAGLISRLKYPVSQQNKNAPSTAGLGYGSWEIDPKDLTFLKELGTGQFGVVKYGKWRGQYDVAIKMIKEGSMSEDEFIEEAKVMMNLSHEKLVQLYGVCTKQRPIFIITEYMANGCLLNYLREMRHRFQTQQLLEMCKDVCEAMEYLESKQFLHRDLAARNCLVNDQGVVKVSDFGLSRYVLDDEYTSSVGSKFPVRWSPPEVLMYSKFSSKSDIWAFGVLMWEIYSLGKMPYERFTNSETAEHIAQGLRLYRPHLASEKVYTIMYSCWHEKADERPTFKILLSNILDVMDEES

This experiment addresses BTK (Homo sapiens (Human), UniProt Q06187). In words: In Vitro BTK Kinase Assay: Btk-PolyGAT-LS Assay. Type of experiment: biochemical. The note with it: active BTK enzyme 0.25 nM, ATP 10 μM, polyGAT 100 nM, 30 minutes. Here is the method: In Vitro BTK Kinase Assay: Btk-PolyGAT-LS Assay
The purpose of the BTK in vitro assay is to determine compound potency against BTK through the measurement of IC50. […] The BTK kinase reaction was done in a black 96 well plate (costar 3694). For a typical assay, a […] aliquot of a ATP/peptide master mix (final concentration; ATP 10 μM, polyGAT 100 nM) in kinase buffer (10 mM Tris-HCl pH 7.5, 10 mM MgCl2, 200 μM […], 5 mM DTT, 0.01% Triton X-100, and 0.2 mg/ml casein) is added to each well. Next, […] of a 4-fold, 40× compound titration in 100% DMSO solvent is added, followed by adding 15 uL of BTK enzyme mix in 1× kinase buffer (with a final concentration of 0.25 nM). The assay is incubated for 30 minutes before being stopped with […] of a 50 mM EDTA solution. Aliquots (5 uL) of the kinase reaction are transferred to a low volume white 384 well plate (Corning 3674), and […] of a 2× detection buffer (Invitrogen PV3574, with 4 nM Tb-PY20 antibody, Invitrogen PV3552) is added. The plate is covered and incubated for 45 minutes at room temperature. Time resolved fluorescence (TRF) on Molecular Devices M5 (332 nm excitation; 488 nm emission; 518 nm fluorescein emission) is measured.
On to `Cc1cc(-c2ncnn3cc(N4CCN(C)CC4)cc23)ccc1CNC(=O)c1nc(C(C)(C)C)no1` [Example 69, 3-(tert-butyl)-N-(2-methyl-4-(6-(4-methylpiperazin-1-yl)pyrrolo[2,1-f][1,2,4]triazin-4-yl)benzyl)-1,2,4-oxadiazole-5-carboxamide], for which the concentration for half-maximal inhibition (IC50) was at most 1 nM.

In the case of `Cc1cc(-c2ncnn3cc(-c4cnn(C)c4)cc23)ccc1CNC(=O)c1nnc(C(C)(C)C)o1` [Example 165], the half-inhibitory concentration (IC50) was at most 1 nM.

With `Cc1cc(-c2ncnn3cncc23)ccc1CNC(=O)c1noc(C(C)(C)C)n1` [Example 54], the 50% inhibitory concentration (IC50) is 1 to 10 nM. In the case of `Cc1cc(-c2ncnn3ccnc23)ccc1CNC(=O)c1noc(C(C)(C)C)n1` [Example 52] it was 1 to 10 nM. The figure for `Cc1cc(-c2cc3c(-c4ccc(CNC(=O)c5noc(C(C)(C)C)n5)c(C)c4)ncnn3c2)cnn1` [Example 170] is at most 1 nM; for `Cc1cc(-c2c(C#N)cnn3cccc23)ccc1CNC(=O)c1noc(C(C)(C)C)n1` [Example 53] it is over 10 nM. The figure for `Cc1cc(-c2ncnn3cc(N4CCN(C)[C@H](C)C4)cc23)ccc1CNC(=O)c1noc(C(C)(C)C)n1` (single isomer, unassigned) [Example 117] is at most 1 nM; for `CC(C)(C)n1cc(C(=O)NCc2ccc(-c3ncnn4cc(N5CCOCC5)cc34)c(F)c2C2CC2)nn1` [Example 164] it is 1 to 10 nM. Regarding `Cc1cc(-c2ncnn3cc(C(=O)N4CCN(C)CC4)cc23)ccc1CNC(=O)c1noc(C(C)(C)C)n1` [Example 216], the IC50 was over 10 nM.

Regarding `Cc1cc(-c2ncnn3cc(N4CCN(C)C(C)C4)cc23)ccc1CNC(=O)c1nnn(C(C)(C)C)n1` (stereo not shown) [Example 98], the IC50 is at most 1 nM. On to `CC(C)(C)c1nc(C(=O)NCc2ccc(-c3ncnn4cc(N5CCOCC5)cc34)cc2C(F)F)co1` [Example 198], for which the IC50 is at most 1 nM. In the case of `Cc1cc(-c2ncnn3ccc(C)c23)ccc1CNC(=O)c1noc(C(C)(C)C)n1` [Example 49] it was 1 to 10 nM; in that of `Cc1cc(-c2ncnn3cc(C(=O)N4CCOCC4)cc23)ccc1CNC(=O)c1noc(C(C)(C)C)n1` [Example 215], over 10 nM; in that of `Cc1cc(-c2ncnn3cc(N4CCO[C@H](C)C4)cc23)ccc1CNC(=O)c1coc(C(C)(C)C)n1` (single isomer, unassigned) [Example 143], at most 1 nM. In the case of `CC(C)(C)c1nc(C(=O)NCc2ccc(-c3ncnn4cc(N5CCOCC5)cc34)cc2CC(F)F)no1` [Example 232] it was at most 1 nM; in that of `Cc1cc(-c2ncnn3cc(-c4cnn(CC(F)F)c4)cc23)ccc1CNC(=O)c1cnn(C(C)(C)C)c1` [Example 145], at most 1 nM; in that of `Cc1c(CNC(=O)c2nc(C(C)(C)C)no2)ccc(-c2ncnn3cc(N4CCN(C)[C@H](C)C4)cc23)c1F` (single isomer, unassigned) [Example 25], at most 1 nM.

`CC(C)(C)n1cc(C(=O)NCc2ccc(-c3ncnn4cc(C5=CCOCC5)cc34)cc2C(F)F)cn1` [Example 208] yielded an IC50 of at most 1 nM. In the case of `Cc1cc(-c2ncnn3cc(N4CCN(C)C[C@H]4C)cc23)ccc1CNC(=O)c1noc(C(C)(C)C)n1` [Example 92] it was 1 to 10 nM; in that of `Cc1cc(-c2ncnn3cc(-c4cn(C)nn4)cc23)ccc1CNC(=O)c1noc(C(C)(C)C)n1` [Example 106], at most 1 nM; in that of `Cc1cc(-c2ncnn3cc(C#N)cc23)ccc1CNC(=O)c1noc(C(C)(C)C)n1` [Example 102], 1 to 10 nM. In the case of `Cn1cc(-c2cc3c(-c4ccc(CNC(=O)c5noc(C(C)(C)C)n5)c(C(F)F)c4)ncnn3c2)cn1` [Example 219] it was at most 1 nM. Compound `Cc1c(CNC(=O)c2noc(C(C)(C)C)n2)ccc(-c2ccnc3cc(N4CCOCC4)nn23)c1F` [Example 84] gave an IC50 of 1 to 10 nM.

The compound `Cc1cc(-c2ncnn3cc(C4=CCOCC4)cc23)ccc1CNC(=O)c1cnc(C(C)(C)C)o1` (single isomer, unassigned) [Example 125] yielded an IC50 of at most 1 nM.

`COc1c(CNC(=O)c2noc(C(C)(C)C)n2)ccc(-c2ncnn3cc(-c4cnn(C)c4)cc23)c1F` [Example 235] had an IC50 of at most 1 nM. The figure for `CC(C)(C)c1nnc(C(=O)NCc2ccc(-c3ncnn4cc(N5CCOCC5)cc34)c(F)c2Cl)o1` [Example 156] is at most 1 nM; for `CC(C)(C)n1cc(C(=O)NCc2ccc(-c3ncnn4cc(N5CCOCC5)cc34)c(F)c2Cl)nn1` [Example 157] it is at most 1 nM. On to `Cc1cc(-c2ncnn3ccc(F)c23)ccc1CNC(=O)c1noc(C(C)(C)C)n1` [Example 19, 5-(tert-butyl)-N-(4-(5-fluoropyrrolo[2,1-f][1,2,4]triazin-4-yl)-2-methylbenzyl)-1,2,4-oxadiazole-3-carboxamide trifluoroacetate], for which the half-inhibitory concentration (IC50) was in the range of 1 to 10 nM. The figure for `CC(C)(C)c1nnc(C(=O)NCc2ccc(-c3ncnn4cc(N5CCOCC5)cc34)cc2Cl)o1` [Example 161] is 1 to 10 nM; for `Cc1cc(-c2ncnn3cc(-c4cccnc4)cc23)ccc1CNC(=O)c1noc(C(C)(C)C)n1` [Example 169] it is at most 1 nM. The figure for `CC(C)(C)c1noc(C(=O)NCc2ccc(-c3ncnn4cc(N5CCOCC5)cc34)cc2C(F)F)n1` [Example 192] is at most 1 nM. The figure for `COc1c(CNC(=O)c2cn(C(C)(C)C)nn2)ccc(-c2ncnn3cc(-c4cnn(C)c4)cc23)c1F` [Example 200] is 1 to 10 nM; for `Cc1cc(-c2ncnn3cc(N4CCN5CC(F)(F)C[C@H]5C4)cc23)ccc1CNC(=O)c1nc(C(C)(C)C)no1` [Example 123] it is at most 1 nM. As for `Cn1cc(-c2cc3c(-c4ccc(CNC(=O)c5nc(C(C)(C)C)no5)c(C(F)F)c4F)ncnn3c2)cn1` [Example 194], the IC50 was at most 1 nM. `Cc1cc2nccc(-c3ccc(CNC(=O)c4noc(C(C)(C)C)n4)c(C)c3)n2n1` [Example 46] registered an IC50 of over 10 nM. The compound `Cc1cc(-c2ncnn3cc(-c4cnn(C)c4)cc23)ccc1CNC(=O)c1cnn(C(C)(C)C)c1` [Example 167] displayed a 50% inhibitory concentration (IC50) of at most 1 nM. The figure for `Cn1cc(-c2cc3c(-c4ccc(CNC(=O)c5nnc(C(C)(C)C)o5)c(C(F)F)c4)ncnn3c2)cn1` [Example 191] is at most 1 nM; for `CC(C)(C)c1noc(C(=O)NCc2ccc(-c3ncnn4cc(N5CCOCC5)cc34)cc2CC(F)F)n1` [Example 65, 3-(tert-butyl)-N-(2-(2,2-difluoroethyl)-4-(6-morpholinopyrrolo[2,1-f][1,2,4]triazin-4-yl)benzyl)-1,2,4-oxadiazole-5-carboxamide hydrochloride] it is at most 1 nM; for `COC1CCN(c2cc3c(-c4ccc(CNC(=O)c5nc(C(C)(C)C)no5)c(C)c4)ncnn3c2)CC1` [Example 97] it is at most 1 nM. In the case of `CC(C)(C)c1noc(C(=O)NCc2ccc(-c3ncnn4cc(N5CCOCC5)cc34)cc2C2CC2)n1` [Example 206] it was at most 1 nM; in that of `CC(C)(C)n1cc(C(=O)NCc2ccc(-c3ncnn4cc(-c5cnn(CC(F)F)c5)cc34)cc2C(F)F)cn1` [Example 209], at most 1 nM; in that of `Cc1cc(-c2ncnn3cc(N4C[C@@H]5C[C@H]4CN5C)cc23)ccc1CNC(=O)c1noc(C(C)(C)C)n1` [Example 93], over 10 nM. The compound `Cc1cc(-c2ncnn3cc(-c4cnn(C)c4)cc23)ccc1CNC(=O)c1noc(C(C)(C)CF)n1` [Example 41, 5-(1-fluoro-2-methylpropan-2-yl)-N-(2-methyl-4-(6-(1-methyl-1H-pyrazol-4-yl)pyrrolo[2,1-f][1,2,4]triazin-4-yl)benzyl)-1,2,4-oxadiazole-3-carboxamide] came in with an IC50 of at most 1 nM. In turn, `Cc1cc(-c2ccnn3ccnc23)ccc1CNC(=O)c1noc(C(C)(C)C)n1` [Example 21, 5-(tert-butyl)-N-(4-(imidazo[1,2-b]pyridazin-8-yl)-2-methylbenzyl)-1,2,4-oxadiazole-3-carboxamide trifluoroacetate] had an IC50 of 1 to 10 nM. The figure for `Cc1cc(-c2ncnn3cc(N4CCn5ccnc5C4)cc23)ccc1CNC(=O)c1nc(C(C)(C)C)no1` [Example 121] is at most 1 nM. In the case of `Cc1c(CNC(=O)c2noc(C(C)(C)C)n2)ccc(-c2ncnn3cccc23)c1F` [Example 218] it was at most 1 nM. In the case of `Cc1cc(-c2ncnn3cc(-c4ccc(F)cc4)cc23)ccc1CNC(=O)c1noc(C(C)(C)C)n1` [Example 224] it was at most 1 nM.

The compound `Cc1cc(-c2ncnn3cc(Br)cc23)ccc1CNC(=O)c1noc(C(C)(C)C)n1` [Example 51] displayed a half-inhibitory concentration (IC50) of 1 to 10 nM. The compound `Cc1cc(-c2ncnn3cc(-c4cncnc4)cc23)ccc1CNC(=O)c1noc(C(C)(C)C)n1` [Example 226] registered an IC50 of at most 1 nM. In the case of `CC(C)(C)n1cc(C(=O)NCc2ccc(-c3ncnn4cc(N5CCOCC5)cc34)cc2Cl)cn1` [Example 160] it was at most 1 nM; in that of `CC=CC(=O)n1cc(-c2cc3c(-c4ccc(CNC(=O)c5noc(C(C)(C)C)n5)c(C)c4)ncnn3c2)cn1` [Example 147], at most 1 nM; in that of `CO[C@H]1CCN(c2cc3c(-c4ccc(CNC(=O)c5nc(C(C)(C)C)no5)c(C)c4)ncnn3c2)C1` (single isomer, unassigned) [Example 23], at most 1 nM.

The record behind these values is patent US12391697B2, “Condensed bi-heterocycles as inhibiting agents for Bruton's tyrosine kinase” (BIOGEN MA INC., priority 2019, dated 2025).
